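Each compound was tested at five concentrations against cells in 96-well plates for 48 hours. TGI is the concentration that stops growth completely.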
test system: SK-MEL-28 melanoma; assay: growth of human tumour cells (NCI), 48 h

Q: How did the TGI turn out when `CC(C)=CCC[C@@H](C)C1=C(O)C(O)C(C)=C2N=C(c3ccccc3)C(=O)OC21` (some centres not stated) was run?
A: Its TGI is greater than 25 µM.

Q: `CC(C)(C)[Si](C)(C)O[C@@H](C(=O)OC1C=CCCC1)[C@@H](NC(=O)c1ccccc1)c1ccccc1` (some centres not stated) was tested. Which TGI did it give?
A: The TGI was greater than 100 µM.

Q: For `O=C(Nc1cccc2ccccc12)Nn1cnnc1`, which TGI is on record?
A: Its TGI is greater than 100 µM.

Q: `Cc1oc2c(c1C)S(=O)(=O)C(C#N)=C(c1ccccc1)N2` was tested. Which TGI did it give?
A: Its TGI is greater than 100 µM.

Q: With `CCOC(=O)C1=CN/C(=C(/C)C(=O)OC)SC1C(=O)OCC` (configuration not stated) as the compound, how does the TGI read?
A: Its TGI is greater than 100 µM.

Q: `Cc1ccc2c(c1)C(=O)/C(=N/Nc1ccc(Cl)cc1)CCO2` was tested. Which TGI did it give?
A: Its TGI is greater than 100 µM.

Q: For `COc1cc(C2SCC(=O)N2c2ccccc2Cl)cc(OC)c1OC` (configuration not stated), which TGI is on record?
A: Its TGI is greater than 100 µM.

Q: With `C=C1C(=O)OC2/C=C(\CO)C3OC3C3OC3(C)CC(OC(=O)/C(=C/C)CO)C12` (configuration not stated) as the compound, how does the TGI read?
A: Its TGI is greater than 100 µM.

Q: For `COc1ccc2cc(CNCCCCCCCCCCCCNCc3ccc4cc(OC)ccc4c3)ccc2c1`, which TGI is on record?
A: Its TGI is greater than 56 µM.

Q: `COc1cc(S(=O)(=O)Nc2nc(-c3ccc(N4C(=O)CSC4c4cccs4)cc3)cs2)ccc1Cl` (configuration not stated) was tested. Which TGI did it give?
A: Its TGI is greater than 100 µM.

Q: `COc1cc(S(=O)(=O)Nc2nc(-c3ccc(N4C(=O)C(CC(=O)O)SC4c4ccccc4O)cc3)cs2)ccc1Cl` (configuration not stated) was tested. Which TGI did it give?
A: The TGI was greater than 100 µM.

Q: With `N#C/C(=C\c1cn(Cc2ccccc2)c2ccccc12)c1nn(-c2ccccc2)c(N)c1C#N` as the compound, how does the TGI read?
A: The TGI was greater than 100 µM.

Q: For `COCC(N=CN1CCCc2ccccc2[C@@H]1CCCCl)C(C)(C)C` (some centres not stated), which TGI is on record?
A: Its TGI is greater than 100 µM.

Q: With `CNc1c2cccc(C)c2nc2c(C(=O)NCCN(C)C)cccc12` as the compound, how does the TGI read?
A: The TGI was 1.17 µM.

Q: How did the TGI turn out when `O=C1CC(NC(=O)C(F)(F)F)c2c1csc2Br` (configuration not stated) was run?
A: The TGI was greater than 100 µM.

Q: How did the TGI turn out when `CC[C@](O)(CC(=O)O[C@H]1C(=O)O[C@@H]2C[C@H]3C(C)=CC(=O)[C@@H](O)[C@]3(C)[C@H]3[C@@]4(O)OC[C@]32[C@@H]1[C@@H](C)[C@H]4O)C(C)C` was run?
A: Its TGI is less than 0.01 µM.

Q: For `O=C1CC(=O)NC(=NN2C(=O)/C(=C/C(=O)c3ccco3)N=C2c2ccccc2)N1`, which TGI is on record?
A: Its TGI is greater than 100 µM.

test system: A549 NSCLC; assay: growth of human tumour cells (NCI), 48 h

Q: How did the TGI turn out when `COc1ccc2cc(Oc3ccc(Cl)cc3)c(=O)oc2c1` was run?
A: Its TGI is greater than 100 µM.

Q: With `CCN(CC)c1cc2c3c(c1)CCCN3CCC2` as the compound, how does the TGI read?
A: Its TGI is greater than 10 µM.

Q: For `CC(=O)O[C@H]1CC[C@H]2[C@@H]3CCC4C(C)=NNC(=O)C4[C@H]3CC[C@]12C` (some centres not stated), which TGI is on record?
A: The TGI was greater than 100 µM.

Q: Which TGI does the source give for `O=c1[nH]c(C23CC4CC(CC(C4)C2)C3)cc2c1c(=O)oc1ccccc12` here?
A: Its TGI is 9.71 µM.

Q: With `CC1=NN(C(=O)CC(=O)Nc2ccc(C)cc2)C(=O)C1N=Nc1ccc(C(=O)O)cc1` (configuration not stated) as the compound, how does the TGI read?
A: The TGI was greater than 100 µM.

Q: With `O=C1C(=O)c2c(oc(=O)c3ccccc23)-c2ccccc21` as the compound, how does the TGI read?
A: The TGI was greater than 25 µM.

Q: With `CCOC(=O)C(C(=O)OCC)=C1NC2(c3ccccc3Nc3ccc(C)cc32)C(C#N)S1` (configuration not stated) as the compound, how does the TGI read?
A: Its TGI is 21.8 µM.

Q: `CN1CCC2(CC1)SC[C@H]1C(=O)N(c3ccc(Cl)cc3)C(=O)N12` was tested. Which TGI did it give?
A: Its TGI is greater than 100 µM.

Q: For `CC(C)=CCC[C@@H](C)C1=C(O)C(O)C(C)=C2N=C(c3ccccc3)C(=O)OC21` (some centres not stated), which TGI is on record?
A: The TGI was greater than 23 µM.

Q: Which TGI does the source give for `CC(C)(C)[Si](C)(C)O[C@@H](C(=O)OC1C=CCCC1)[C@@H](NC(=O)c1ccccc1)c1ccccc1` (some centres not stated) here?
A: Its TGI is 94.9 µM.

Q: With `O=C(Nc1cccc2ccccc12)Nn1cnnc1` as the compound, how does the TGI read?
A: Its TGI is greater than 100 µM.

Q: Which TGI does the source give for `Cc1oc2c(c1C)S(=O)(=O)C(C#N)=C(c1ccccc1)N2` here?
A: Its TGI is greater than 100 µM.

Q: `CCOC(=O)C1=CN/C(=C(/C)C(=O)OC)SC1C(=O)OCC` (configuration not stated) was tested. Which TGI did it give?
A: Its TGI is greater than 100 µM.

Q: Which TGI does the source give for `Cc1ccc2c(c1)C(=O)/C(=N/Nc1ccc(Cl)cc1)CCO2` here?
A: Its TGI is greater than 100 µM.

Q: Which TGI does the source give for `COc1cc(C2SCC(=O)N2c2ccccc2Cl)cc(OC)c1OC` (configuration not stated) here?
A: Its TGI is greater than 100 µM.

Q: Which TGI does the source give for `C=C1C(=O)OC2/C=C(\CO)C3OC3C3OC3(C)CC(OC(=O)/C(=C/C)CO)C12` (configuration not stated) here?
A: Its TGI is greater than 100 µM.

Q: For `COc1ccc2cc(CNCCCCCCCCCCCCNCc3ccc4cc(OC)ccc4c3)ccc2c1`, which TGI is on record?
A: The TGI was greater than 54.8 µM.

Q: Which TGI does the source give for `COc1cc(S(=O)(=O)Nc2nc(-c3ccc(N4C(=O)CSC4c4cccs4)cc3)cs2)ccc1Cl` (configuration not stated) here?
A: The TGI was greater than 100 µM.

Q: How did the TGI turn out when `COc1cc(S(=O)(=O)Nc2nc(-c3ccc(N4C(=O)C(CC(=O)O)SC4c4ccccc4O)cc3)cs2)ccc1Cl` (configuration not stated) was run?
A: The TGI was greater than 100 µM.

Q: For `N#C/C(=C\c1cn(Cc2ccccc2)c2ccccc12)c1nn(-c2ccccc2)c(N)c1C#N`, which TGI is on record?
A: Its TGI is 24.6 µM.

Q: For `COCC(N=CN1CCCc2ccccc2[C@@H]1CCCCl)C(C)(C)C` (some centres not stated), which TGI is on record?
A: The TGI was 66.3 µM.

Q: How did the TGI turn out when `CNc1c2cccc(C)c2nc2c(C(=O)NCCN(C)C)cccc12` was run?
A: Its TGI is 0.331 µM.

Q: With `O=C1CC(NC(=O)C(F)(F)F)c2c1csc2Br` (configuration not stated) as the compound, how does the TGI read?
A: Its TGI is greater than 100 µM.

Q: How did the TGI turn out when `C[C@]12C[C@H](c3ccccc3)Nc3ccccc3N1C(c1ccccc1)=NO2` was run?
A: The TGI was greater than 100 µM.

Q: For `O=C1CC(=O)NC(=NN2C(=O)/C(=C/C(=O)c3ccco3)N=C2c2ccccc2)N1`, which TGI is on record?
A: Its TGI is greater than 100 µM.

test system: SW-620 colon; assay: growth of human tumour cells (NCI), 48 h

Q: For `COc1ccc2cc(Oc3ccc(Cl)cc3)c(=O)oc2c1`, which TGI is on record?
A: The TGI was greater than 100 µM.

Q: `CCN(CC)c1cc2c3c(c1)CCCN3CCC2` was tested. Which TGI did it give?
A: Its TGI is greater than 10 µM.

Q: For `CC(=O)O[C@H]1CC[C@H]2[C@@H]3CCC4C(C)=NNC(=O)C4[C@H]3CC[C@]12C` (some centres not stated), which TGI is on record?
A: Its TGI is greater than 100 µM.

Q: With `O=c1[nH]c(C23CC4CC(CC(C4)C2)C3)cc2c1c(=O)oc1ccccc12` as the compound, how does the TGI read?
A: The TGI was greater than 51.8 µM.

Q: With `CC1=NN(C(=O)CC(=O)Nc2ccc(C)cc2)C(=O)C1N=Nc1ccc(C(=O)O)cc1` (configuration not stated) as the compound, how does the TGI read?
A: Its TGI is greater than 100 µM.

Q: With `O=C1C(=O)c2c(oc(=O)c3ccccc23)-c2ccccc21` as the compound, how does the TGI read?
A: The TGI was greater than 25 µM.

Q: How did the TGI turn out when `CCOC(=O)C(C(=O)OCC)=C1NC2(c3ccccc3Nc3ccc(C)cc32)C(C#N)S1` (configuration not stated) was run?
A: Its TGI is 30.3 µM.

Q: Which TGI does the source give for `CN1CCC2(CC1)SC[C@H]1C(=O)N(c3ccc(Cl)cc3)C(=O)N12` here?
A: The TGI was greater than 100 µM.

Q: `CC(C)=CCC[C@@H](C)C1=C(O)C(O)C(C)=C2N=C(c3ccccc3)C(=O)OC21` (some centres not stated) was tested. Which TGI did it give?
A: Its TGI is greater than 25 µM.

Q: How did the TGI turn out when `CC(C)(C)[Si](C)(C)O[C@@H](C(=O)OC1C=CCCC1)[C@@H](NC(=O)c1ccccc1)c1ccccc1` (some centres not stated) was run?
A: Its TGI is greater than 100 µM.

Q: How did the TGI turn out when `O=C(Nc1cccc2ccccc12)Nn1cnnc1` was run?
A: Its TGI is greater than 100 µM.

Q: How did the TGI turn out when `Cc1oc2c(c1C)S(=O)(=O)C(C#N)=C(c1ccccc1)N2` was run?
A: The TGI was greater than 100 µM.

Q: For `CCOC(=O)C1=CN/C(=C(/C)C(=O)OC)SC1C(=O)OCC` (configuration not stated), which TGI is on record?
A: The TGI was greater than 100 µM.

Q: How did the TGI turn out when `Cc1ccc2c(c1)C(=O)/C(=N/Nc1ccc(Cl)cc1)CCO2` was run?
A: Its TGI is greater than 100 µM.

Q: `COc1cc(C2SCC(=O)N2c2ccccc2Cl)cc(OC)c1OC` (configuration not stated) was tested. Which TGI did it give?
A: The TGI was greater than 100 µM.

Source: PubChem BioAssay (NCI)
